US20090098536A1, “Method for subgroup analysis in subjects having or being suspected of having inflammatory disease, use of anti-p38MAPK antibodies, kits and their use” (c-a-i-r- biosciences GmbH, priority 2007, published 2009)

Key:
p38MAPKα = p38MAPKα (Homo sapiens, UniProt Q16539); settings: disclosed in WO 2004/110990; cited from earlier work
[1] = system: patients with moderate to severe rheumatoid arthritis; assay: VeRA trial of the p38MAPK inhibitor VX-702 in rheumatoid arthritis; format: in vivo, human; settings: according to a Monte Carlo simulation of the distribution of the effects
Procedure: It has been claimed that p38MAPK inhibitors were of benefit in treating a large variety of disorders. […] In the VeRA trial, which was conducted to evaluate treatment effects in terms of characteristic manifestations of the disease such as tender joints, swollen joints, morning stiffness and disease activity in a cohort of 315 patients with moderate to severe rheumatoid arthritis, approximately 40% of patients were responsive to treatment with the p38MAPK inhibitor VX-702, compared to a placebo effect of about 30%, arguing for a biochemical net response rate of about 28% according to a Monte Carlo simulation of the distribution of the effects. So far, no explanation for this evident dichotomy between responders and non-responders has been proposed yet.

[2] = system: patients with moderate to severe rheumatoid arthritis; settings: cohort of 315 patients with moderate to severe rheumatoid arthritis; placebo effect about 30%; cited from earlier work

Chain of p38MAPKα (Q16539 1-360 isoform Q16539-2): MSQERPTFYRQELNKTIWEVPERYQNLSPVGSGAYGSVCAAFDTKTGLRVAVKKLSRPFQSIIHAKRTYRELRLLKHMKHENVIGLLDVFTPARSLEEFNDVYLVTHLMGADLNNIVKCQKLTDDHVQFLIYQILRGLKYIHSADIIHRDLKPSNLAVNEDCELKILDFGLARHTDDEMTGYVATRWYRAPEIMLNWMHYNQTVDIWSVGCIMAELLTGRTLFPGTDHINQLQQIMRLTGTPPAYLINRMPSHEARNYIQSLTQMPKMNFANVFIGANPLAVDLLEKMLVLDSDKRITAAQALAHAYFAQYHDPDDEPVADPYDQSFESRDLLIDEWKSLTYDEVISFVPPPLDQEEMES

SMILES | IC50 (p38MAPKα) [nM] | biochemical net response rate [1] | patients responsive to treatment [2]
Fc1ccc(-c2nc3occn3c2-c2ccnc(NC3CC3)n2)cc1 [4-(4-fluorophenyl)-5-(2-[cyclopropyl-amino]-pyrimidyl-4-yl)-imidazooxazole] | 0.44 | – | –
NC(=O)c1ccc(N(C(N)=O)c2c(F)cccc2F)nc1-c1ccc(F)cc1F [VX-702] | – | about 28% | approximately 40%
